# PubChem BioAssay AID1259246 (Broad Institute, 2017)
# Where “and” joins values, the source holds several entries; their conditions need not be identical. Equal values may be shown once. Inconclusive results are not listed. Calls of active or inactive are those of the source.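 The calls were made as follows: active = valid dose-response fit whose half-maximal growth-inhibiting concentration is at or below a set limit above the top tested dose; inconclusive = flat fit with effect between 30 and 70%, or poor fit; inactive = half-maximal concentration above a set limit.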
# System: not listed separately
# Experiment: antibacterial activity against Clostridioides difficile – 10-point retest, dose response (AID 1259246)
# Conditions: Clostridioides difficile clinical isolate growth, OD600, 24 h; at 120 µM (top of the series)
row,Structure (SMILES),"activity change, negative = inhibition"
1,Cc1ccc(S(=O)(=O)N[C@H]2CC[C@H](CCNC(=O)c3ccc4c(c3)OCO4)O[C@H]2CO)cc1,-3.6% (inactive)
2,C[C@H](CO)N1C[C@H](C)[C@H](CN(C)Cc2ccc(-c3ccccc3)cc2)Oc2ccc(NC(=O)CCCN(C)C)cc2CC1=O,37.3% (inactive)
3,O=C(C[C@H]1C[C@H]2c3cc(NS(=O)(=O)c4ccc(F)cc4)ccc3O[C@H]2[C@H](CO)O1)NCc1ccc(-c2ccccc2)cc1,17.8% (inactive)
4,CC(C)CC#Cc1ccc2c(c1)O[C@H](CN(C)CC1CCOCC1)[C@H](C)CN([C@H](C)CO)S2(=O)=O,14.5% (inactive)
5,C[C@@H]1CN([C@@H](C)CO)C(=O)Cc2cc(N(C)C)ccc2O[C@@H]1CN(C)Cc1ccc(-c2ccccc2)cc1,30.2% (inactive)
6,C[C@@H]1CN([C@@H](C)CO)S(=O)(=O)c2ccc(C#CCN(C)C)cc2O[C@@H]1CN(C)Cc1ccc(F)cc1,4.72% (inactive)
7,C[C@@H]1CN([C@H](C)CO)C(=O)c2cc(NC(=O)c3ccccc3)ccc2O[C@@H](C)CCCCO[C@H]1CN(C)S(=O)(=O)c1ccc(F)cc1,10.1% (inactive)
8,C[C@H](CO)N1C[C@H](C)[C@@H](CN(C)Cc2ccc3c(c2)OCO3)Oc2c(NC(=O)Nc3ccc(C(F)(F)F)cc3)cccc2C1=O,28.9% (inactive)
9,C[C@H]1CN([C@@H](C)CO)C(=O)c2cccc(NC(=O)Nc3ccc(C(F)(F)F)cc3)c2O[C@H]1CN(C)S(=O)(=O)c1ccc(Cl)cc1,51.5% (inactive)
10,C[C@@H]1CN([C@H](C)CO)S(=O)(=O)c2ccc(C3=CCCCC3)cc2O[C@H]1CN(C)Cc1ccccc1,12.5% (inactive)
11,C[C@@H]1CN([C@H](C)CO)C(=O)Cc2cc(NC(=O)C3CC3)ccc2O[C@H]1CN(C)Cc1ccc(Oc2ccccc2)cc1,20.2% (inactive)
12,O=C(O)C[C@H]1C[C@@H]2c3cc(NC(=O)NC4CCCC4)ccc3O[C@@H]2[C@@H](CO)O1,2.6% (inactive)

# Same assay, conditions: Clostridioides difficile clinical isolate growth, OD600, 24 h; at 135 µM (top of the series)
row,Structure (SMILES),"activity change, negative = inhibition"
1,C[C@@H]1CN([C@@H](C)CO)C(=O)Cc2cc(NC(=O)C3CC3)ccc2O[C@H]1CN(C)Cc1ccc(Oc2ccccc2)cc1,48% (inactive)
2,C[C@@H]1CN([C@@H](C)CO)C(=O)Cc2cc(NS(C)(=O)=O)ccc2O[C@@H]1CN(C)Cc1ccc(-c2ccccc2)cc1,16.9% (inactive)
3,C[C@@H]1CN([C@H](C)CO)C(=O)Cc2cc(NC(=O)CCC(F)(F)F)ccc2O[C@H]1CN(C)Cc1ccc(-c2ccccc2)cc1,15.9% (inactive)
4,C[C@@H]1CN([C@@H](C)CO)C(=O)Cc2cc(NS(=O)(=O)c3ccccc3)ccc2O[C@@H]1CN(C)Cc1ccc(-c2ccccc2)cc1,17.3% (inactive)
5,C[C@@H]1CN([C@@H](C)CO)C(=O)Cc2cc(NC(=O)CCCN(C)C)ccc2O[C@@H]1CN(C)Cc1ccc(Oc2ccccc2)cc1,18% (inactive)
6,C[C@@H]1CN([C@H](C)CO)C(=O)c2cc(NC(=O)Nc3cccc4ccccc34)ccc2O[C@@H](C)CCCCO[C@H]1CN(C)C(=O)c1ccccc1,14.9% (inactive)
7,O=C(N[C@H]1CC[C@H](CCNS(=O)(=O)Cc2ccccc2)O[C@H]1CO)c1ccc2c(c1)OCO2,-7.24% (inactive)

# System: Clostridioides difficile clinical isolate growth, OD600, 24 h
# Experiment: as above
# Conditions: not given
row,Structure (SMILES),IC50
1,C[C@H]1CN([C@@H](C)CO)S(=O)(=O)c2ccc(C#Cc3ccc(F)cc3)cc2O[C@@H]1CN(C)C,69.9 µM
2,CO[C@H]1CN(C)C(=O)c2cc(NC(=O)Nc3ccc(Cl)c(Cl)c3)ccc2OC[C@@H](C)NC[C@H]1C,14.9 µM and 13.1 µM
3,C[C@@H]1CCCCO[C@H](CN(C)Cc2ccc3c(c2)OCO3)[C@@H](C)CN([C@@H](C)CO)C(=O)c2cc(NS(=O)(=O)c3cccs3)ccc2O1,33.5 µM
4,C[C@@H]1CN([C@H](C)CO)S(=O)(=O)c2ccc(C#CCC3CCCC3)cc2O[C@H]1CN(C)Cc1ccc(C(=O)O)cc1,76.2 µM
5,COc1ccc(NC(=O)Nc2cccc3c2O[C@H](CN(C)Cc2ccc(-c4ccccc4)cc2)[C@H](C)CN([C@@H](C)CO)C3=O)cc1,101 µM
6,C[C@H](CO)N1C[C@H](C)[C@@H](CN(C)Cc2ccc(Oc3ccccc3)cc2)Oc2ccc(NC(=O)CCCN(C)C)cc2CC1=O,64.1 µM
7,CO[C@H]1CN(C)C(=O)c2cc(NC(=O)Nc3cc(Cl)cc(Cl)c3)ccc2OC[C@@H](C)NC[C@H]1C,31.2 µM and 25.9 µM
8,Cc1ccc(S(=O)(=O)N[C@H]2CC[C@@H](CCNC(=O)Nc3ccc(Cl)cc3)O[C@H]2CO)cc1,> 270 µM (inactive)
9,C[C@H](CO)N1C[C@H](C)[C@@H](CN(C)Cc2ccc(C(=O)O)cc2)Oc2cc(/C=C/c3ccccc3)ccc2S1(=O)=O,> 120 µM (inactive)
10,C[C@H](CO)N1C[C@H](C)[C@H](CN(C)C(=O)Nc2ccccc2)Oc2c(NC(=O)Nc3ccc(C(F)(F)F)cc3)cccc2C1=O,19.8 µM
11,C[C@@H]1CN([C@@H](C)CO)C(=O)c2cccc(NS(=O)(=O)c3ccccc3)c2O[C@@H]1CN(C)Cc1ccc(-c2ccccc2)cc1,62.5 µM
